How the values were obtained:
Type in all cases: functional
SW-620 = experiment: Anticancer activity against Homo sapiens (human) SW620 cells assessed as cell growth promotion at 10 uM after 48 hr by SRB assay
BT-549 = experiment: Anticancer activity against Homo sapiens (human) BT549 cells assessed as cell growth promotion at 10 uM after 48 hr by SRB assay
OVCAR-5 = experiment: Anticancer activity against Homo sapiens (human) OVCAR5 cells assessed as cell growth promotion at 10 uM after 48 hr by SRB assay
RXF 393 = experiment: Anticancer activity against Homo sapiens (human) RXF393 cells assessed as cell growth promotion at 10 uM after 48 hr by SRB assay
NCI-H226 = experiment: Anticancer activity against Homo sapiens (human) NCI-H226 cells assessed as cell growth promotion at 10 uM after 48 hr by SRB assay
HL-60(TB) = experiment: Anticancer activity against Homo sapiens (human) HL-60(TB) cells assessed as cell growth promotion at 10 uM after 48 hr by SRB assay
MCF7 = experiment: Anticancer activity against Homo sapiens (human) MCF7 cells assessed as cell growth promotion at 10 uM after 48 hr by SRB assay
UO-31 = experiment: Anticancer activity against Homo sapiens (human) UO31 cells assessed as cell growth promotion at 10 uM after 48 hr by SRB assay
ACHN = experiment: Anticancer activity against Homo sapiens (human) ACHN cells assessed as cell growth promotion at 10 uM after 48 hr by SRB assay
IGROV-1 = experiment: Anticancer activity against Homo sapiens (human) IGROV1 cells assessed as cell growth promotion at 10 uM after 48 hr by SRB assay
SNB-19 = experiment: Anticancer activity against Homo sapiens (human) SNB19 cells assessed as cell growth promotion at 10 uM after 48 hr by SRB assay
MDA-MB-231 = experiment: Anticancer activity against Homo sapiens (human) MDA-MB-231/ATCC cells assessed as cell growth promotion at 10 uM after 48 hr by SRB assay
UACC-62 = experiment: Anticancer activity against Homo sapiens (human) UACC62 cells assessed as cell growth promotion at 10 uM after 48 hr by SRB assay
NCI-H322M = experiment: Anticancer activity against Homo sapiens (human) NCI-H322M cells assessed as cell growth promotion at 10 uM after 48 hr by SRB assay
SK-MEL-28 = experiment: Anticancer activity against Homo sapiens (human) SK-MEL-28 cells assessed as cell growth promotion at 10 uM after 48 hr by SRB assay
CAKI-1 = experiment: Anticancer activity against Homo sapiens (human) CAKI-1 cells assessed as cell growth promotion at 10 uM after 48 hr by SRB assay
COLO 205 = experiment: Anticancer activity against Homo sapiens (human) COLO205 cells assessed as cell growth promotion at 10 uM after 48 hr by SRB assay
UACC-257 = experiment: Anticancer activity against Homo sapiens (human) UACC257 cells assessed as cell growth promotion at 10 uM after 48 hr by SRB assay
OVCAR-4 = experiment: Anticancer activity against Homo sapiens (human) OVCAR4 cells assessed as cell growth promotion at 10 uM after 48 hr by SRB assay
LOX IMVI = experiment: Anticancer activity against Homo sapiens (human) LOXIMVI cells assessed as cell growth promotion at 10 uM after 48 hr by SRB assay
NCI-H522 = experiment: Anticancer activity against Homo sapiens (human) NCI-H522 cells assessed as cell growth promotion at 10 uM after 48 hr by SRB assay
A498 = experiment: Anticancer activity against Homo sapiens (human) A498 cells assessed as cell growth promotion at 10 uM after 48 hr by SRB assay
OVCAR-3 = experiment: Anticancer activity against Homo sapiens (human) OVCAR3 cells assessed as cell growth promotion at 10 uM after 48 hr by SRB assay
SK-MEL-2 = experiment: Anticancer activity against Homo sapiens (human) SK-MEL-2 cells assessed as cell growth promotion at 10 uM after 48 hr by SRB assay
EKVX = experiment: Anticancer activity against Homo sapiens (human) EKVX cells assessed as cell growth promotion at 10 uM after 48 hr by SRB assay
U-251 = experiment: Anticancer activity against Homo sapiens (human) U251 cells assessed as cell growth promotion at 10 uM after 48 hr by SRB assay
TK-10 = experiment: Anticancer activity against Homo sapiens (human) TK10 cells assessed as cell growth promotion at 10 uM after 48 hr by SRB assay
DU-145 = experiment: Anticancer activity against Homo sapiens (human) DU145 cells assessed as cell growth promotion at 10 uM after 48 hr by SRB assay
NCI-H460 = experiment: Anticancer activity against Homo sapiens (human) NCI-H460 cells assessed as cell growth promotion at 10 uM after 48 hr by SRB assay
SF-268 = experiment: Anticancer activity against Homo sapiens (human) SF268 cells assessed as cell growth promotion at 10 uM after 48 hr by SRB assay
HCT-15 = experiment: Anticancer activity against Homo sapiens (human) HCT15 cells assessed as cell growth promotion at 10 uM after 48 hr by SRB assay
MOLT-4 = experiment: Anticancer activity against Homo sapiens (human) MOLT4 cells assessed as cell growth promotion at 10 uM after 48 hr by SRB assay
HOP-92 = experiment: Anticancer activity against Homo sapiens (human) HOP92 cells assessed as cell growth promotion at 10 uM after 48 hr by SRB assay
RPMI-8226 = experiment: Anticancer activity against Homo sapiens (human) RPMI8226 cells assessed as cell growth promotion at 10 uM after 48 hr by SRB assay
SF-295 = experiment: Anticancer activity against Homo sapiens (human) SF295 cells assessed as cell growth promotion at 10 uM after 48 hr by SRB assay
SK-OV-3 = experiment: Anticancer activity against Homo sapiens (human) SKOV3 cells assessed as cell growth promotion at 10 uM after 48 hr by SRB assay
PC-3 = experiment: Anticancer activity against Homo sapiens (human) PC3 cells assessed as cell growth promotion at 10 uM after 48 hr by SRB assay
MDA-MB-468 = experiment: Anticancer activity against Homo sapiens (human) MDA-MB-468 cells assessed as cell growth promotion at 10 uM after 48 hr by SRB assay
SK-MEL-5 = experiment: Anticancer activity against Homo sapiens (human) SK-MEL-5 cells assessed as cell growth promotion at 10 uM after 48 hr by SRB assay
MDA-MB-435 = experiment: Anticancer activity against Homo sapiens (human) MDA-MB-435 cells assessed as cell growth promotion at 10 uM after 48 hr by SRB assay

Row | Structure (SMILES) | Activity (SW-620) [%] | Activity (BT-549) [%] | Activity (OVCAR-5) [%] | Activity (RXF 393) [%] | Activity (NCI-H226) [%] | Activity (HL-60(TB)) [%] | Activity (MCF7) [%] | Activity (UO-31) [%] | Activity (ACHN) [%] | Activity (IGROV-1) [%] | Activity (SNB-19) [%] | Activity (MDA-MB-231) [%] | Activity (UACC-62) [%] | Activity (NCI-H322M) [%] | Activity (SK-MEL-28) [%] | Activity (CAKI-1) [%] | Activity (COLO 205) [%] | Activity (UACC-257) [%] | Activity (OVCAR-4) [%] | Activity (LOX IMVI) [%] | further results
1 | CCOC(=O)c1csc(NC(=O)CSc2nc(C)c(C)n2Nc2ccc(C)cc2)n1 | 98.75 | 91.44 | 74.57 | 38.47 | 70.72 | 77.24 | 80.14 | 62.65 | 76.52 | 95.15 | 75.4 | 62.5 | 62.91 | 97.18 | 80.17 | 80.52 | 80.51 | 88.46 | 74.76 | 77.98 | Activity (NCI-H522): 76.3%; Activity (A498): 90.47%; Activity (OVCAR-3): 108.5%; Activity (SK-MEL-2): 93.46%; Activity (EKVX): 99.66%; Activity (U-251): 76.07%; Activity (TK-10): 77.84%; Activity (DU-145): 108.96%; Activity (NCI-H460): 109.11%; Activity (SF-268): 102.22%; Activity (HCT-15): 98.05%; Activity (MOLT-4): 92.25%; Activity (HOP-92): 44.51%; Activity (RPMI-8226): 72.05%; Activity (SF-295): 53.71%; Activity (SK-OV-3): 90.71%; Activity (PC-3): 88.3%; Activity (MDA-MB-468): 67.17%; Activity (SK-MEL-5): 47.48%; Activity (MDA-MB-435): 78.21%
2 | COc1ccc(Nn2c(SCC(=O)Nc3nccs3)nc(C)c2C)cc1 | 113.7 | 105.55 | 89.33 | 126.87 | 105.15 | 98.86 | 102.31 | 86.71 | 100.51 | 102.01 | 109.69 | 105.41 | 95.78 | 110.58 | 113.96 | 90.35 | 107.27 | 108.29 | 110.54 | 105.4 | Activity (NCI-H522): 95.16%; Activity (A498): 99.48%; Activity (OVCAR-3): 113.42%; Activity (SK-MEL-2): 92.7%; Activity (EKVX): 108.98%; Activity (U-251): 104.49%; Activity (TK-10): 105.37%; Activity (DU-145): 112.49%; Activity (NCI-H460): 108.22%; Activity (SF-268): 103.59%; Activity (HCT-15): 100.06%; Activity (MOLT-4): 100.89%; Activity (HOP-92): 117.01%; Activity (RPMI-8226): 102.22%; Activity (SF-295): 91.49%; Activity (SK-OV-3): 108.56%; Activity (PC-3): 103.43%; Activity (MDA-MB-468): 94.85%; Activity (SK-MEL-5): 102.75%; Activity (MDA-MB-435): 97.68%
3 | Cc1nc(SCC(=O)Nc2nccs2)n(Nc2ccc(Cl)cc2)c1C | 123.41 | 111.12 | 87.36 | 91.41 | 93.51 | 95.84 | 104.33 | 86.43 | 104.69 | 126.1 | 121.25 | 98.69 | 104.39 | 131.8 | 111.02 | 101.14 | 121.19 | 107.66 | 102.19 | 101.8 | Activity (NCI-H522): 111.97%; Activity (A498): 101.93%; Activity (OVCAR-3): 117.12%; Activity (SK-MEL-2): 116.11%; Activity (EKVX): 123.2%; Activity (U-251): 108.53%; Activity (TK-10): 120.55%; Activity (DU-145): 122.72%; Activity (NCI-H460): 106%; Activity (SF-268): 112.74%; Activity (HCT-15): 102.77%; Activity (MOLT-4): 117.57%; Activity (HOP-92): 96.74%; Activity (RPMI-8226): 104.54%; Activity (SF-295): 97.66%; Activity (SK-OV-3): 102.45%; Activity (PC-3): 103.63%; Activity (MDA-MB-468): 105.66%; Activity (SK-MEL-5): 84.95%; Activity (MDA-MB-435): 110.71%
